IC50 and viability, T/C data for four molecules are collected here from PubChem BioAssay AID2060337 (Molecular Pharmacology Branch, DTP, NCI, 2025).

The structures appear in SMILES notation. pIC50: −log10 of the molar value. Several values for one entry are separate records, joined by “and”; a condition that tells them apart may be missing. Identical values can stand only once. Bounds are passed on as bounds.

The experiment has as its system 832693-133-R-J1-PDC multi-cell spheroids, viability. The experiment can be described thus: Anticancer human tumor 832693-133-R-J1-PDC patient-derived head and neck squamous carcinoma cell line growth inhibition [IpAb]. Particulars: for viability, T/C: stronger effect = lower value. The source says:
Combinatorial screen of targeted agents with ipatasertib and abemaciclib in multi-cell type tumor spheroids
A high-throughput screen of multi-cell type tumor spheroids was designed to identify active combinations of targeted small molecules and ipatasertib or abemaciclib. Complex spheroids include a stromal component modeled by human endothelial cells (HUVEC) and fibroblasts modeled by human mesenchymal stem cells (MSCs). The concentration ranges selected for each drug and investigational agent were based upon clinically achievable concentrations if the clinical Cmax of the agent was known.
Compounds. The drugs and investigational agents: ipatasertib (NSC767898), abemaciclib(NSC768073), selumetinib (NSC741078), trametinib (758246), adavosertib (NSC754352), everolimus (NSC733504), sapanisertib (NSC764658), vemurafenib (NSC761431), venetoclax (NSC766270), copanlisib (NSC809693), apelisib (NSC765974), palbociblib (NSC758247), vemurafenib (NSC761431), dabrafenib (NSC764134), ravoxertinib (NSC781343), BMS-387032 (NSC767048), sotorasib (NSC818433), talazoparib (NSC767125) and afursertib (NSC778305), were obtained from the National Cancer Institute (NCI) Developmental Therapeutics Program Chemical Repository. The FDA-approved anticancer drug set is available from the NCI Developmental Therapeutics Program. […] The stock solutions were prepared in dimethyl sulfoxide (DMSO, Sigma-Aldrich, St. Louis, MO, cat. D2650) at 800-fold the tested concentration and stored at -70 degrees C prior to their use. All drugs and investigational agents were tested over a range starting from a high concentration at or near the clinical Cmax and decreasing in half-log increments. If the clinical Cmax for an agent had not been determined, the highest concentration tested was 10 microM.
NCI60 Cell Culture. NCI60 cell lines were obtained from the NCI Developmental Therapeutics Program Tumor Repository. For each lot of cells, the Repository performed Applied Biosystems AmpFLSTR Identifiler testing with PCR amplification to confirm consistency with the published Identifier STR profile for each cell line. Cells were kept in continuous culture for no more than 20 passages. The optimal seeding densities for each of the cell lines at each time point assessed were determined prior to performing the concentration response studies. Briefly, the NCI60 human tumor lines were grown as monolayers in RPMI 1640 medium supplemented with 10% FBS and 2 mmol/L L-glutamine.
An additional 9 lines were from the NCI60 cell line panel including MDA-MB-231 breast carcinoma, MDA-MB-468 breast carcinoma, MCF7 breast carcinoma, Hs578T breast carcinoma, MALME-3M melanoma, SK-MEL-2 melanoma, SK-OV-3 ovarian carcinoma, DU-145 prostate carcinoma, PC-3 prostate carcinoma, all cell lines along with major genetic alterations are listed on Table 2. Pooled donor human umbilical vein endothelial cells (HUVEC, Lonza, cat. CC-2519) and human mesenchymal stem cells (hMSC, Lonza, cat. PT-2501) were purchased from Lonza (Walkersville, MD).
PDMR cell lines were grown in complete medium (DC medium): Dulbecco's modified Eagle's medium (DMEM)/F12 supplemented with 5% fetal bovine serum (FBS), 2 mM L-glutamine, 100 U/mL penicillin and 100 µg/ml streptomycin, 0.4 µg/ml hydrocortisone, 10 ng/ml epidermal growth factor (EGF) recombinant human protein, 24 µg/mL adenine, and 0.1 mg/mL primocin. During culture from frozen stock vials, PDMR cells were cultured in the same medium containing 10 µM Y-27632 (see Table 3). The PDCs were cultured in complete DMEM/F12 media without 10 microM Y-27632 dihydrochloride for at least two passages prior to the screen. The pooled donor HUVEC and hMSC were cultured in endothelial cell growth medium 2 (PromoCell, Heidelberg, Germany, cat. C-22011) and mesenchymal stem cell growth medium 2 (PromoCell, cat. C-28009), respectively. For all experiments, HUVEC and hMSC were used at passages </=5.
[…]

The mark [1] stands for this setting: curve of first compound, second compound 0.1 µM.
Setting [2] is: curve of first compound, second compound 0.316 µM.
Setting [3] is: curve of first compound, second compound 1 µM.
Where [4] appears, read: curve of first compound, second compound 3.16 µM.
The mark [5] stands for this setting: curve of first compound, second compound 10 µM.
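Also: spheroids exposed to the drugs for one week before the viability readout.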
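For viability, T/C in this document: 100% = DMSO vehicle control wells.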

As for `CC(=O)c1c(C)c2cnc(Nc3ccc(N4CCNCC4)cn3)nc2n(C2CCCC2)c1=O` + CC(C)NCC(C(=O)N1CCN(c2ncnc3c2C(C)CC3O)CC1)c1ccc(Cl)cc1, the pIC50 by setting is: under setting [1], 7.16; under setting [2], 7.93; under setting [3], 8.58; under setting [4], 8.77; under setting [5], 8.55. For the same molecule, the viability, T/C is 90.5% (second compound 0.1 µM, first compound 0.000949 µM); 75% (second compound 0.1 µM, first compound 0.003 µM); 66.7% (second compound 0.1 µM, first compound 0.00949 µM); 53.4% (second compound 0.1 µM, first compound 0.03 µM); 47.8% (second compound 0.1 µM, first compound 0.0949 µM); 44.7% (second compound 0.1 µM, first compound 0.3 µM). In addition, the viability, T/C reads like this: (second compound 0.316 µM, first compound 0.000949 µM) 64.8%; (second compound 0.316 µM, first compound 0.003 µM) 62.6%; (second compound 0.316 µM, first compound 0.00949 µM) 51.2%; (second compound 0.316 µM, first compound 0.03 µM) 41.5%; (second compound 0.316 µM, first compound 0.0949 µM) 31.4%; (second compound 0.316 µM, first compound 0.3 µM) 34.1%. Moreover, the viability, T/C by setting is: (second compound 1 µM, first compound 0.000949 µM) 56.9%; (second compound 1 µM, first compound 0.003 µM) 49.6%; (second compound 1 µM, first compound 0.00949 µM) 36.6%; (second compound 1 µM, first compound 0.03 µM) 33.3%; (second compound 1 µM, first compound 0.0949 µM) 27.8%; (second compound 1 µM, first compound 0.3 µM) 29.6%. Also, the viability, T/C is 56.2% (second compound 3.16 µM, first compound 0.000949 µM); 45.1% (second compound 3.16 µM, first compound 0.003 µM); 31.6% (second compound 3.16 µM, first compound 0.00949 µM); 34.4% (second compound 3.16 µM, first compound 0.03 µM); 23.5% (second compound 3.16 µM, first compound 0.0949 µM); 20.8% (second compound 3.16 µM, first compound 0.3 µM). In addition, the viability, T/C is 61% (second compound 10 µM, first compound 0.000949 µM); 50.5% (second compound 10 µM, first compound 0.003 µM); 37.8% (second compound 10 µM, first compound 0.00949 µM); 30.5% (second compound 10 µM, first compound 0.03 µM); 26.9% (second compound 10 µM, first compound 0.0949 µM); 21% (second compound 10 µM, first compound 0.3 µM).
Regarding `Cn1ncnc1[C@H]1c2n[nH]c(=O)c3cc(F)cc(c23)N[C@@H]1c1ccc(F)cc1`, the viability, T/C (compound 0.000316 µM) was 110% and 111%; the viability, T/C (compound 0.001 µM) was 97.9% and 109%; the viability, T/C (compound 0.00316 µM) is 98.3% and 96.9%; the viability, T/C (compound 0.01 µM) was 86.5% and 107%; the viability, T/C (compound 0.0316 µM) is 95.6% and 93.8%; the viability, T/C (compound 0.1 µM) was 86.1% and 84.1%. In addition, for the setting “curve of compound”, the pIC50 is less than 7.00.
For `Cn1ncc(Cl)c1-c1cc(C(=O)NC(CN)Cc2cccc(F)c2)sc1Cl` (centres undefined) + CC(C)NCC(C(=O)N1CCN(c2ncnc3c2C(C)CC3O)CC1)c1ccc(Cl)cc1, the pIC50 reads like this: under setting [1], 5.30; under setting [2], 5.32; under setting [3], 5.43; under setting [4], 5.38; under setting [5], 5.58. Also, the viability, T/C (second compound 0.1 µM, first compound 0.0316 µM) was 94.7%; the viability, T/C (second compound 0.1 µM, first compound 0.1 µM) was 87.5%; the viability, T/C (second compound 0.1 µM, first compound 0.316 µM) is 75.5%; the viability, T/C (second compound 0.1 µM, first compound 1 µM) is 61.1%; the viability, T/C (second compound 0.1 µM, first compound 3.16 µM) was 90.1%; the viability, T/C (second compound 0.1 µM, first compound 10 µM) is 0.23%. The viability, T/C (second compound 0.316 µM, first compound 0.0316 µM) was 82.7%; the viability, T/C (second compound 0.316 µM, first compound 0.1 µM) is 73.1%; the viability, T/C (second compound 0.316 µM, first compound 0.316 µM) was 79.9%; the viability, T/C (second compound 0.316 µM, first compound 1 µM) is 63.2%; the viability, T/C (second compound 0.316 µM, first compound 3.16 µM) is 92.3%; the viability, T/C (second compound 0.316 µM, first compound 10 µM) is 0.22%. The viability, T/C (second compound 1 µM, first compound 0.0316 µM) was 47.9%; the viability, T/C (second compound 1 µM, first compound 0.1 µM) is 59.8%; the viability, T/C (second compound 1 µM, first compound 0.316 µM) is 54.6%; the viability, T/C (second compound 1 µM, first compound 1 µM) was 56.6%; the viability, T/C (second compound 1 µM, first compound 3.16 µM) was 74.3%; the viability, T/C (second compound 1 µM, first compound 10 µM) was 0.2%. Further, the viability, T/C by setting is: (second compound 3.16 µM, first compound 0.0316 µM) 50.1%; (second compound 3.16 µM, first compound 0.1 µM) 59.1%; (second compound 3.16 µM, first compound 0.316 µM) 66.1%; (second compound 3.16 µM, first compound 1 µM) 70.3%; (second compound 3.16 µM, first compound 3.16 µM) 80.8%; (second compound 3.16 µM, first compound 10 µM) 0.2%. The viability, T/C runs as follows: (second compound 10 µM, first compound 0.0316 µM) 67.2%; (second compound 10 µM, first compound 0.1 µM) 73%; (second compound 10 µM, first compound 0.316 µM) 69.5%; (second compound 10 µM, first compound 1 µM) 73.8%; (second compound 10 µM, first compound 3.16 µM) 46.1%; (second compound 10 µM, first compound 10 µM) 0.24%.
With `Cn1cnc2c(F)c(Nc3ccc(Br)cc3Cl)c(C(=O)NOCCO)cc21`, the viability, T/C is 79.6% and 64.7% (compound 0.00949 µM); 69.7% and 59.6% (compound 0.03 µM); 57.5% and 53.9% (compound 0.0949 µM); 48.1% and 43.7% (compound 0.3 µM); 38.3% and 35.9% (compound 0.949 µM); 19.1% and 15% (compound 3 µM). Also, where the note is “curve of compound”, the pIC50 was 6.62 and 6.78.
